Data reported in ChEMBL document CHEMBL4808208, “Hepatoselective Dihydroquinolizinone Bis-acids for HBsAg mRNA Degradation” (ACS Med Chem Lett, 2021).
“And” between values parts separate entries of the source, which are not always exact repeats. Equal entries are not always repeated.

Legend:
[1] = test system: OATP1B3; assay: Ratio of drug uptake in HEK293 cells transfected with OATP1B3 (unknown origin) in absence of transporter inhibitor, estradiol-17beta-glucuronide to drug uptake in HEK293 cells in absence of transporter inhibitor, estradiol-17beta-glucuronide by LC-MS/MS analysis; type: ADME, cell-based; conditions: human, HEK293 cells transfected with OATP1B3 versus HEK293 cells
[2] = target: Terminal nucleotidyltransferase 4A (Homo sapiens) (UniProt Q5XG87); assay: Inhibition of human PAPD7 expressed in HEK293 cells assessed as inhibition of poly-adenylation reaction using P32-labeled RNA oligonucleotides (5'-GCCUUUCAUCUCUAACUGCGAAAAAAAAAA-3') as substrate measured for 3 hrs by phosphor imaging analysis; type: cell-based; conditions: dose 0.37-10 µM
[3] = Efflux ratio of apparent permeability in MDCK-MDR1 cells at 1 uM after 120 mins by LC-MS/MS analysis; type: ADME, cell-based, Canis lupus familiaris; conditions: dog
[4] = Metabolic stability in mouse liver microsomes assessed as clearance preincubated with compound for 10 mins followed by NADPH regenerating system addition and measured per mg protein for 60 mins by LC/MS-MS analysis; type: ADME, Microsome; conditions: time 70 min, read-out: CLH
[5] = Metabolic stability in mouse liver microsomes assessed as half life preincubated with compound for 10 mins followed by NADPH regenerating system addition and measured for 60 mins by LC/MS-MS analysis; type: ADME, Microsome; conditions: time 70 min
[6] = Apparent permeability of the compound across basolateral to apical side in human Caco-2 cells at 10 uM incubated for 1 hr; type: ADME, cell-based
[7] = target: T1, Cytochrome P450 2B6 (Homo sapiens, UniProt P20813); assay: Inhibition of CYP2B6 in human liver microsomes using bupropion as substrate preincubated for 5 mins followed by NADPH addition by LC-MS/MS analysis; type: ADME
T1 sequence (P20813 whole entry): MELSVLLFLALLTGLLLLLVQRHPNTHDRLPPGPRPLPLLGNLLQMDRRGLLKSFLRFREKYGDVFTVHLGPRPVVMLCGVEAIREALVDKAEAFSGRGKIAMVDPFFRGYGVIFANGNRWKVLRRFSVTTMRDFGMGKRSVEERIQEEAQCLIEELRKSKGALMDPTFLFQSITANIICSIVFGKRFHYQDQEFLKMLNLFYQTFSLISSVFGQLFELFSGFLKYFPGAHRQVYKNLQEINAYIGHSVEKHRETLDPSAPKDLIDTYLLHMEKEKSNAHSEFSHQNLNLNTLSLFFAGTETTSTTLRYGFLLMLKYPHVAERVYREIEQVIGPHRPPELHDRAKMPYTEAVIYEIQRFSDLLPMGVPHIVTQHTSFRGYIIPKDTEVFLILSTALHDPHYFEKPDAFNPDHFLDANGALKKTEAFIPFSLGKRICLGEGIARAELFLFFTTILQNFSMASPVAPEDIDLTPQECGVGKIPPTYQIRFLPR

[8] = target: Cytochrome P450 2E1 (Homo sapiens, UniProt P05181); assay: Inhibition of CYP2E1 in human liver microsomes using chlorzoxazone as substrate preincubated for 5 mins followed by NADPH addition by LC-MS/MS analysis; type: ADME
[9] = Half life in CD-1 mouse plasma at 3 mg/kg, iv measured for 24 hrs by LC-MS/MS analysis; type: ADME, organism-based
[10] = Half life in CD-1 mouse liver at 8 mg/kg, po measured for 24 hrs by LC-MS/MS analysis; type: ADME, organism-based
[11] = Cmax in CD-1 mouse plasma at 8 mg/kg, po measured for 24 hrs by LC-MS/MS analysis; type: ADME, organism-based; set-up: route oral, dose 8 mg/kg, time 24 hrs
[12] = AUC (last) in CD-1 mouse plasma at 8 mg/kg, po measured for 24 hrs by LC-MS/MS analysis; type: ADME, organism-based; set-up: route oral, dose 8 mg/kg, time 24 hrs
[13] = Drug concentration in CD-1 mouse liver at 8 mg/kg, po measured after 8 hrs by LC-MS/MS analysis; type: ADME, organism-based; conditions: read-out: Ct
[14] = Ratio of Cmax in liver to plasma in CD-1 mouse at 8 mg/kg, po by LC-MS/MS analysis; type: ADME, organism-based
[15] = Ratio of AUC(last) in liver to plasma in CD-1 mouse at 8 mg/kg, po by LC-MS/MS analysis; type: ADME, organism-based

Terminal nucleotidyltransferase 4A (Homo sapiens), sequence (Q5XG87 whole entry): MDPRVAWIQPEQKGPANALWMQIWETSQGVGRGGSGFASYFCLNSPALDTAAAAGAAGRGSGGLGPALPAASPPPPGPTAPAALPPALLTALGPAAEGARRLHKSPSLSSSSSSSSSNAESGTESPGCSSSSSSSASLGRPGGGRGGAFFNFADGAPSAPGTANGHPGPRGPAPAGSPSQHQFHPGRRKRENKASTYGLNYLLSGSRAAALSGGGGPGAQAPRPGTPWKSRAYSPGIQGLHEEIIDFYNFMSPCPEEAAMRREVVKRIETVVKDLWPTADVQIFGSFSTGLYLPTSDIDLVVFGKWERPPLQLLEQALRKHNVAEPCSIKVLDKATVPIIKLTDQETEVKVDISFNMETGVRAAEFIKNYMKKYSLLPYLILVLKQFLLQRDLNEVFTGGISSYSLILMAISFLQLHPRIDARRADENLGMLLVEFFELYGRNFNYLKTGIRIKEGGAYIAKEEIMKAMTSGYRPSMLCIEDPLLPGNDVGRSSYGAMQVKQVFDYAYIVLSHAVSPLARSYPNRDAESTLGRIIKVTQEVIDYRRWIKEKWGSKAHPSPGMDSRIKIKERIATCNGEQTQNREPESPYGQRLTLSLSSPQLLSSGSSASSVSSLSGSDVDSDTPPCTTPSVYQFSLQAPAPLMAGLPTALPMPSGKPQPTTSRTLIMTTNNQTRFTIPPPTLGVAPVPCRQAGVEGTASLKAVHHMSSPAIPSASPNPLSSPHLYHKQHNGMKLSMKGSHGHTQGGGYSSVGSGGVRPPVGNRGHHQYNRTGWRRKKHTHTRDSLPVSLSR
Cytochrome P450 2E1, sequence (P05181 whole entry): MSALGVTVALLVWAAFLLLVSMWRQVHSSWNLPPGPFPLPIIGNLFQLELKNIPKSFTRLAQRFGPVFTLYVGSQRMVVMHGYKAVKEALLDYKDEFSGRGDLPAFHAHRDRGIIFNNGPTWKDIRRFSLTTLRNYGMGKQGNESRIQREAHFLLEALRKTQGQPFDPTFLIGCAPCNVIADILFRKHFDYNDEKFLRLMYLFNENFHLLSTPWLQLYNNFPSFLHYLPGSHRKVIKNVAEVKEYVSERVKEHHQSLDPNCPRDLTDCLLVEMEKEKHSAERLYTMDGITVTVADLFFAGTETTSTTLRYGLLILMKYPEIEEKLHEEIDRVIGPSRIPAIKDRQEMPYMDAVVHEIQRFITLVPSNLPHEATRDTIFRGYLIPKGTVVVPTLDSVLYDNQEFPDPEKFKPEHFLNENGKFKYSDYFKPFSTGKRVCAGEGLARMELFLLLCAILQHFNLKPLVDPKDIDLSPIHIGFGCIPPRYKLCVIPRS

- uptake ratio [1]: 24.8
- inhibition [2]: Dose-Dependent Effect
- efflux ratio at 2 h, 1 µM [3]: 1.47
- microsomal CLint [4]: 0.8 µL/min/mg
- half-life [5]: 28.9 h
- Papp B→A at 1 h, 10 µM [6]: 2.06 ×10⁻⁶ cm/s
- IC50 [7]: > 10 µM
- IC50 [8]: > 10 µM
- half-life [9]: 1.48 h
- half-life [10]: 3.54 h
- Cmax [11]: 16.1 ng/mL
- AUC(0-t) at 24 h [12]: 34.7 ng·h/mL
- concentration at 8 h [13]: 63 ng/mL and 140 nM
- Kp [14]: 20.7
- Kp [15]: 37.7
SMILES: COc1cc2c(cc1OCCCCCCC(=O)O)C[C@@H](C(C)C)n1cc(C(=O)O)c(=O)cc1-2
